Data taken from publication PMC3214022, “Plasmodium falciparum Parasites Are Killed by a Transition State Analogue of Purine Nucleoside Phosphorylase in a Primate Animal Model” (PLoS ONE, 2011).
Several values for one entry are separate records, joined by “and”; a condition that tells them apart may be missing. Equal entries are not always repeated.

Experiment: Weights, CBC and blood chemistry, Table S1 sheet PD-1 (efficacy study in P. falciparum-infected Aotus)
Format: in vivo, Aotus lemurinus lemurinus
Description: Laboratory bred Aotus lemurinus lemurinus monkeys (0.75–0.89 kg) were maintained as described. […] Blood samples were collected before the treatment started (t = 0), 0.05 h, 0.5 h, 1 h, 2 h, 6 h, 24 h, 48 h, and 6, 12 and 18 days after the first dose from each monkey and processed as described below. Pharmacokinetic parameters were calculated using PKSolver. For efficacy studies, Aotus monkeys were inoculated intravenously with 5×10^6 parasites of the FVO strain of P. falciparum in an approved treatment protocol. […] Parasitaemia was determined by Giemsa-stained thick blood smears prepared daily from the marginal ear vein [41]. Blood samples were collected from each monkey and transferred to tubes containing lithium heparin, centrifuged and both plasma and blood cells were frozen at −80 °C until analysis. Animals received a physical examination and blood chemistry profiles were monitored after treatment as described previously. Any monkey not responding appropriately to treatment was cured of its infection with mefloquine (40 mg kg^−1). […] The day of clearance is defined as the first of three consecutive days in which the thick blood films are parasite negative. The day of recrudescence is the first of three consecutive days of positive thick blood films after a period of clearance. Suppression is defined as a transient decrease in the parasite count post-treatment without clearance.

[1] = IV 10 mg/kg once a day/3 days, day -2, 10 mg/kg
[2] = oral 50 mg/kg once a day/3 days, day 9, 50 mg/kg
[3] = oral 50 mg/kg once a day/3 days, day 12, 50 mg/kg
[4] = oral 50 mg/kg once a day/3 days, day 19, 50 mg/kg
[5] = oral 50 mg/kg once a day/3 days, day 25, 50 mg/kg
[6] = oral 50 mg/kg once a day/3 days, day -2, 50 mg/kg

Structure (SMILES): Nc1nc2c(CN3CC(O)C(CO)C3)c[nH]c2c(=O)[nH]1 (centres unmarked) [BCX4945, 4′-deaza-1′-aza-2′-deoxy-1′-(9-methylene)-Immucillin-G]
- Mean Platelet Volume [1]: 14.7 fL and 12.2 fL and 11 fL and 10.9 fL and 13.1 fL
- Monocytes (%) [1]: 5.1% and 3.6% and 2.9% and 6.5% and 4.2%
- Monocytes (x 103/ul) [1]: 0.9 x 103/ul and 0.8 x 103/ul and 0.6 x 103/ul and 0.5 x 103/ul and 0.7 x 103/ul
- Platelets [1]: 354000 µL⁻¹ and 250000 µL⁻¹ and 406000 µL⁻¹ and 431000 µL⁻¹ and 270000 µL⁻¹ and 371000 µL⁻¹
- Red Cell Distribution Width [1]: 12.5% and 12.2% and 11.4% and 12.4% and 12%
- Reticulocytes [1]: 1.9% and 1% and 1.5% and 1.2% and 1.3%
- WEIGHT [1]: 680 g and 766 g and 832 g and 849 g and 684 g
- Blood Urea Nitrogen [2]: 14.3 mg/dL and 15 mg/dL and 13.15 mg/dL
- Creatinine [2]: 0.672 mg/dL and 0.825 mg/dL and 0.587 mg/dL
- Erythrocytes [2]: 4.76e+06 µL⁻¹ and 5.14e+06 µL⁻¹ and 3.94e+06 µL⁻¹
- Granulocytes (%) [2]: 21.7% and 25.8% and 21.1%
- Granulocytes (x 103/ul) [2]: 4.4 x 103/ul and 2.3 x 103/ul and 3.3 x 103/ul
- Hematocrit [2]: 38.1% and 39.5% and 32.5%
- Hemoglobin [2]: 12.9 g/dL and 13.5 g/dL and 10.8 g/dL
- Lymphocytes (%) [2]: 61% and 66.1% and 63.4%
- Mean Corpuscular Hemoglobin [2]: 27.1 pg and 26.3 pg and 27.5 pg
- Mean Corpuscular Volume [2]: 80.1 fL and 76.8 fL and 82.4 fL
- Mean Hemoglobin Content [2]: 33.8 g/dL and 34.2 g/dL and 33.4 g/dL
- Mean Platelet Volume [2]: 11 fL and 13.9 fL
- Monocytes (%) [2]: 17.3% and 8.1% and 15.5%
- Red Cell Distribution Width [2]: 13.3% and 12% and 10.8%
- Reticulocytes [2]: 2.5% and 1.1% and 1%
- WEIGHT [2]: 851 g and 873 g and 776 g
- Blood Urea Nitrogen [3]: 23.05 mg/dL and 23.55 mg/dL and 26.95 mg/dL
- Creatinine [3]: 0.563 mg/dL and 0.686 mg/dL and 0.565 mg/dL
- Erythrocytes [3]: 4.04e+06 µL⁻¹ and 4.25e+06 µL⁻¹ and 2.77e+06 µL⁻¹
- Glutamate Pyruvate Transaminase [3]: 46.7 U/L and 46.1 U/L and 37.8 U/L
- Granulocytes (%) [3]: 17.9% and 26.3% and 14.8%
- Hematocrit [3]: 33.2% and 32.4% and 22.7%
- Hemoglobin [3]: 7.7 g/dL
- Leucocytes [3]: 42000 µL⁻¹ and 22200 µL⁻¹ and 22000 µL⁻¹
- Lymphocytes (%) [3]: 68.1% and 66.2% and 76.8%
- Lymphocytes (x 103/ul) [3]: 28.6 x 103/ul and 14.7 x 103/ul and 16.9 x 103/ul
- Mean Corpuscular Hemoglobin [3]: 27.7 pg and 26.4 pg and 27.6 pg
- Mean Corpuscular Volume [3]: 82.1 fL and 76.4 fL and 81.9 fL
- Mean Hemoglobin Content [3]: 33.7 g/dL and 34.5 g/dL
- Mean Platelet Volume [3]: 11.3 fL and 14.6 fL and 11.8 fL
- Monocytes (%) [3]: 14% and 7.5% and 8.4%
- Red Cell Distribution Width [3]: 13.4% and 11.3%
- Reticulocytes [3]: 1.9% and 2% and 2.3%
- WEIGHT [3]: 800 g and 804 g and 738 g
- Blood Urea Nitrogen [4]: 16.75 mg/dL and 18.3 mg/dL and 27.85 mg/dL
- Creatinine [4]: 0.614 mg/dL and 0.695 mg/dL and 0.678 mg/dL
- Erythrocytes [4]: 3.94e+06 µL⁻¹ and 4.96e+06 µL⁻¹ and 3.82e+06 µL⁻¹
- Granulocytes (%) [4]: 9.6% and 17.6% and 10.1%
- Hematocrit [4]: 35.3% and 41.8% and 36.2%
- Hemoglobin [4]: 11.5 g/dL and 14 g/dL and 11.6 g/dL
- Lymphocytes (%) [4]: 79% and 75.3% and 78.4%
- Mean Corpuscular Hemoglobin [4]: 29.3 pg and 28.3 pg and 30.3 pg
- Mean Corpuscular Volume [4]: 89.8 fL and 84.2 fL and 94.8 fL
- Mean Hemoglobin Content [4]: 32.6 g/dL and 33.6 g/dL and 32 g/dL
- Mean Platelet Volume [4]: 12.3 fL and 13.3 fL and 19.7 fL
- Monocytes (%) [4]: 11.4% and 11.5%
- Monocytes (x 103/ul) [4]: 6.8 x 103/ul and 3.9 x 103/ul
- Red Cell Distribution Width [4]: 22.7% and 21.9% and 24.4%
- Reticulocytes [4]: 1.7% and 1.6% and 1.8%
- WEIGHT [4]: 832 g and 847 g and 757 g
- Blood Urea Nitrogen [5]: 24.4 mg/dL and 16 mg/dL and 21 mg/dL
- Creatinine [5]: 0.52 mg/dL and 0.578 mg/dL and 0.663 mg/dL
- Erythrocytes [5]: 4.62e+06 µL⁻¹ and 4.69e+06 µL⁻¹ and 5.44e+06 µL⁻¹
- Glutamate Pyruvate Transaminase [5]: 17.7 U/L and 27.2 U/L
- Hematocrit [5]: 40.4% and 41.4% and 44.4%
- Hemoglobin [5]: 13.5 g/dL and 14 g/dL and 15.5 g/dL
- Leucocytes [5]: 15400 µL⁻¹ and 16400 µL⁻¹ and 15300 µL⁻¹
- Lymphocytes (%) [5]: 65.9% and 79.6% and 75.3%
- Lymphocytes (x 103/ul) [5]: 10.1 x 103/ul and 13.1 x 103/ul and 11.5 x 103/ul
- Mean Corpuscular Hemoglobin [5]: 29.3 pg and 29.8 pg and 28.6 pg
- Mean Corpuscular Volume [5]: 87.4 fL and 88.1 fL and 81.7 fL
- Mean Hemoglobin Content [5]: 33.5 g/dL and 33.7 g/dL and 35 g/dL
- Mean Platelet Volume [5]: 14.1 fL
- Monocytes (%) [5]: 7.3% and 7% and 11.7%
- Monocytes (x 103/ul) [5]: 1.1 x 103/ul and 1.8 x 103/ul
- Red Cell Distribution Width [5]: 19.2% and 20.4% and 17.9%
- Reticulocytes [5]: 1.3% and 2.1% and 2%
- WEIGHT [5]: 748 g and 818 g and 853 g
- Mean Platelet Volume (oral 50 mg/kg once a day/3 days, day -2): 12.8 fL
- Blood Urea Nitrogen [6]: 18 mg/dL and 23.05 mg/dL
- Creatinine [6]: 0.679 mg/dL and 0.554 mg/dL
- Erythrocytes [6]: 7.17e+06 µL⁻¹ and 6.1e+06 µL⁻¹ and 5.2e+06 µL⁻¹
- Granulocytes (%) [6]: 33.3% and 31.8% and 22.4%
- Hematocrit [6]: 54.4% and 48% and 42.5%
- Hemoglobin [6]: 19.3 g/dL and 17 g/dL and 14.7 g/dL
- Leucocytes [6]: 16900 µL⁻¹ and 15400 µL⁻¹ and 11300 µL⁻¹
- Lymphocytes (%) [6]: 61.5% and 64.5% and 73.1%
- Lymphocytes (x 103/ul) [6]: 10.4 x 103/ul and 9.9 x 103/ul and 8.3 x 103/ul
- Mean Corpuscular Hemoglobin [6]: 26.8 pg and 27.8 pg and 28.2 pg
- Mean Corpuscular Volume [6]: 75.8 fL and 78.6 fL and 81.7 fL
- Mean Hemoglobin Content [6]: 35.4 g/dL and 34.6 g/dL
- Mean Platelet Volume [6]: 10.2 fL and 10.4 fL
- Monocytes (%) [6]: 5.2% and 3.7% and 4.5%
- Monocytes (x 103/ul) [6]: 0.9 x 103/ul and 0.6 x 103/ul and 0.5 x 103/ul
- Platelets [6]: 463000 µL⁻¹ and 389000 µL⁻¹ and 372000 µL⁻¹
- Red Cell Distribution Width [6]: 11.8% and 13.6% and 10.4%
- Reticulocytes [6]: 1.8% and 2% and 1.7%
- WEIGHT [6]: 804 g and 800 g and 738 g
